In ChEMBL document CHEMBL3992540, “Novel indolin-2-one-based sulfonamides as carbonic anhydrase inhibitors: Synthesis, in vitro biological evaluation against carbonic anhydrases isoforms I, II, IV and VII and molecular docking studies” (Eur J Med Chem, 2017) one finds Ki data, which are given here for 18 compounds.

Usually Ki stands for the dissociation constant of the complex between target and ligand, obtained from inhibition or displacement.

One assay concerns the target Carbonic anhydrase 2 (Homo sapiens, UniProt P00918). Nature of the assay: Inhibition of human recombinant carbonic anhydrase 2 incubated for 15 mins prior to testing by stopped-flow CO2 hydration assay.
For another assay, the target named is Carbonic anhydrase 1 (Homo sapiens, UniProt P00915). Nature of the assay: Inhibition of human recombinant carbonic anhydrase 1 incubated for 15 mins prior to testing by stopped-flow CO2 hydration assay.
A further assay deals with Carbonic anhydrase 7 (Homo sapiens, UniProt P43166). Nature of the assay: Inhibition of human recombinant carbonic anhydrase 7 incubated for 15 mins prior to testing by stopped-flow CO2 hydration assay.
The target in a further assay is Carbonic anhydrase 4 (Homo sapiens, UniProt P22748). As to the kind of experiment: Inhibition of human recombinant carbonic anhydrase 4 incubated for 15 mins prior to testing by stopped-flow CO2 hydration assay.
Chain of Carbonic anhydrase 4 (P22748 whole entry): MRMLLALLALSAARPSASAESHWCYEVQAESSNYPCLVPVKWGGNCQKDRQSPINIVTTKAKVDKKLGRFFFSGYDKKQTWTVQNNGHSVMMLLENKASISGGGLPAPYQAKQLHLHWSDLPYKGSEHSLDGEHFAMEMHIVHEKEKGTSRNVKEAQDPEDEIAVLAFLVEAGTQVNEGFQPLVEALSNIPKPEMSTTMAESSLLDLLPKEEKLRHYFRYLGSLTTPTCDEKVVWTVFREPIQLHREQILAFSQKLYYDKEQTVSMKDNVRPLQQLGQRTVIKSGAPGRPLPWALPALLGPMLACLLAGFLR

Chain of Carbonic anhydrase 7 (P43166 whole entry): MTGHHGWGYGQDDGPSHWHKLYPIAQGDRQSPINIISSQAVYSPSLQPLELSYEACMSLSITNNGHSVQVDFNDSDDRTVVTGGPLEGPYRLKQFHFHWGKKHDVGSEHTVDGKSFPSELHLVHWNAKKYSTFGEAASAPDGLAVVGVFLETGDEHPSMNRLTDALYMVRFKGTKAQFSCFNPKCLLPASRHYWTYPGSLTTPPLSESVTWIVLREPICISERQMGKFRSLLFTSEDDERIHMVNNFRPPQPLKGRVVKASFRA
Chain of Carbonic anhydrase 1 (P00915 whole entry): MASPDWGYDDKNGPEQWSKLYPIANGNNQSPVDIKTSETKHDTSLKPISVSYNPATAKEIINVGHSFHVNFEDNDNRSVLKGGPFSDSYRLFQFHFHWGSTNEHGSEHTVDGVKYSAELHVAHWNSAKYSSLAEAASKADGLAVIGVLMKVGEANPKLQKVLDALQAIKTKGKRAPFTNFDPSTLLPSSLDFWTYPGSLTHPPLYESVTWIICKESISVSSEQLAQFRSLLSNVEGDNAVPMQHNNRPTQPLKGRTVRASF

`Cc1cc(C)c2c(c1)/C(=N/CCc1ccc(S(N)(=O)=O)cc1)C(=O)N2`: the Ki turned out to be 50.5 nM at Carbonic anhydrase 2, 256 nM on Carbonic anhydrase 1 and 90.9 nM at Carbonic anhydrase 7.
On to `NS(=O)(=O)c1ccc(CC/N=C2\NC(=O)/C(=C3/C(=O)Nc4ccccc43)S2)cc1`, for which the Ki turned out to be 262 nM at Carbonic anhydrase 2 and 875 nM at Carbonic anhydrase 1.
Taken in the same sequence, the figures for `NS(=O)(=O)c1ccc(CC/N=C2\NC(=O)/C(=C3/C(=O)Nc4ccc(Cl)cc43)S2)cc1` were 302 nM and 4450 nM.
Consider `CN1C(=O)/C(=N\CCc2ccc(S(N)(=O)=O)cc2)c2cc(Br)ccc21`, for which the values for the Ki at Carbonic anhydrase 2 and at Carbonic anhydrase 1 were 5.9 nM and 64.9 nM, respectively.
Turning to `NS(=O)(=O)c1ccc(CC/N=C2\C(=O)Nc3ccc(Br)cc32)cc1`, on Carbonic anhydrase 1, the Ki came to 81.5 nM.
`Cc1ccc2c(c1)/C(=C1/S/C(=N/CCc3ccc(S(N)(=O)=O)cc3)NC1=O)C(=O)N2`: the Ki at Carbonic anhydrase 2 was found to be 63.9 nM; at Carbonic anhydrase 1 it was 845 nM; on Carbonic anhydrase 7 it was 67.2 nM.
On to `NS(=O)(=O)c1ccc(CC/N=C2\C(=O)N(Cc3ccccc3)c3ccc(Br)cc32)cc1`, for which the Ki at Carbonic anhydrase 1 is 6150 nM.
For `CN1C(=O)/C(=N\CCc2ccc(S(N)(=O)=O)cc2)c2ccccc21`, the Ki on Carbonic anhydrase 1 came to 42 nM; on Carbonic anhydrase 7, 28.6 nM.
For `Cc1ccc2c(c1)/C(=N/CCc1ccc(S(N)(=O)=O)cc1)C(=O)N2`, the Ki on Carbonic anhydrase 1 was 316 nM.
On to `NS(=O)(=O)c1ccc(CC/N=C2\NC(=O)/C(=C3/C(=O)Nc4ccc(Br)cc43)S2)cc1`, for which the Ki turned out to be 157 nM at Carbonic anhydrase 2, 40.7 nM on Carbonic anhydrase 4, 3600 nM on Carbonic anhydrase 1 and 79.3 nM at Carbonic anhydrase 7.
Take `NS(=O)(=O)c1ccc(CC/N=C2\C(=O)Nc3ccc(Cl)cc32)cc1`: the Ki at Carbonic anhydrase 1 stood at 64.1 nM.
As to `NS(=O)(=O)c1ccc(CC/N=C2\NC(=O)/C(=C3/C(=O)Nc4ccc([N+](=O)[O-])cc43)S2)cc1`, the results for the Ki at Carbonic anhydrase 2 and on Carbonic anhydrase 1 were 28.6 nM and 265 nM, respectively.
Regarding `COc1ccc2c(c1)/C(=N/CCc1ccc(S(N)(=O)=O)cc1)C(=O)N2`, the Ki on Carbonic anhydrase 1 was 206 nM.
On the same count and under the same terms, the result for `NS(=O)(=O)c1ccc(CC/N=C2\C(=O)Nc3ccccc32)cc1` reads 92.5 nM.
Consider `NS(=O)(=O)c1ccc(CC/N=C2\C(=O)N(Cc3ccccc3)c3ccc(Cl)cc32)cc1`, for which the Ki at Carbonic anhydrase 1 is 8550 nM; on Carbonic anhydrase 7, above 10000 nM.
As to `NS(=O)(=O)c1ccc(CC/N=C2\NC(=O)CS2)cc1`, the Ki on Carbonic anhydrase 2 came to 6.6 nM; on Carbonic anhydrase 4, 79.4 nM; on Carbonic anhydrase 1, 93.9 nM; on Carbonic anhydrase 7, 13.2 nM.
Regarding `NS(=O)(=O)c1ccc(CC/N=C2\C(=O)N(Cc3ccccc3)c3ccccc32)cc1`, the Ki at Carbonic anhydrase 1 came to 746 nM; at Carbonic anhydrase 7 it was 536 nM.
Regarding `CN1C(=O)/C(=N\CCc2ccc(S(N)(=O)=O)cc2)c2cc(Cl)ccc21`, the Ki at Carbonic anhydrase 2 stood at 7.7 nM; at Carbonic anhydrase 4 it was 31.2 nM; on Carbonic anhydrase 1, 668 nM; at Carbonic anhydrase 7 it was 91 nM.
